The source of these data is PMC4556473 (British Journal of Pharmacology, 2015).

Assay [1] concerns the target T1, WT mSlo3 (KCa5.1) channels (Mus musculus, UniProt O54982).
T1 construct: Full-length WT, R196Q and F304Y mSlo3 K^+ channel subunits were expressed in Xenopus oocytes; expressed in transfected cells; host or cells: Xenopus laevis oocytes injected with in vitro transcribed capped mRNA (pBF vector)
T1 sequence (O54982 1-1121): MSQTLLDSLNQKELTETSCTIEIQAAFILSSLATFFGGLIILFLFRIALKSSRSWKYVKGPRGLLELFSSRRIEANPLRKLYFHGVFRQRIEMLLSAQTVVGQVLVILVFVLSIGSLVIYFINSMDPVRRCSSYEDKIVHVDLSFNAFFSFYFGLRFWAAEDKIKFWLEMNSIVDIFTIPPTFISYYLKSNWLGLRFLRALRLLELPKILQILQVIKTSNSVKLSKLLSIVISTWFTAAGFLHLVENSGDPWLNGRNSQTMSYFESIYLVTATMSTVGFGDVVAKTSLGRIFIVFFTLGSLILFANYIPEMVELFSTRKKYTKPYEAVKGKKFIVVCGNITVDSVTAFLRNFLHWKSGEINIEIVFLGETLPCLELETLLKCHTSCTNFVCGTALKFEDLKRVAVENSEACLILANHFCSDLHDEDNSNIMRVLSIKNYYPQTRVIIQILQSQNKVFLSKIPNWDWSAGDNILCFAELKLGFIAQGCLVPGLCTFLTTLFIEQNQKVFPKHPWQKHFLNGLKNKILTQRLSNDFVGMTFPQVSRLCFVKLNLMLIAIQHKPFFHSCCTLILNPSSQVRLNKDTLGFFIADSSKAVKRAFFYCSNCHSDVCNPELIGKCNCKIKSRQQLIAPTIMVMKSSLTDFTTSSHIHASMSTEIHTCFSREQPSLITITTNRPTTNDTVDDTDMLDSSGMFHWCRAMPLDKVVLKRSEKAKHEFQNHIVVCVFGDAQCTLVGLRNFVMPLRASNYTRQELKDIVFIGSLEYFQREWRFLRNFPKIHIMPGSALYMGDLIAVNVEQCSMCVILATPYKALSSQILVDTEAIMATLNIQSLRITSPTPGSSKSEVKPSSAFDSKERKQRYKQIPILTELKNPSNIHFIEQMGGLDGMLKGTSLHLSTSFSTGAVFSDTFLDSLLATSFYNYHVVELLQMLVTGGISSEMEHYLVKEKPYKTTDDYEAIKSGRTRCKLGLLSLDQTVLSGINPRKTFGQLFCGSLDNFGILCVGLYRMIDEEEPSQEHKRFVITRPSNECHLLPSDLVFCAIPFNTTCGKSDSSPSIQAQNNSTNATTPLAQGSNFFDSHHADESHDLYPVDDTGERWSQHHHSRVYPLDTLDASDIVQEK
Briefly: Two-electrode voltage clamp of WT mSlo3 currents in Xenopus oocytes. The conditions noted are these: for inhibition of WT mSlo3 current: pulses to +100 mV. Format: cell-based. How it is done:
A plasmid containing the full-length mSlo3 sequence was a gift from Dr L. Salkoff (Washington University School of Medicine) and the open-reading frame was subcloned into pBF (Baukrowitz et al., [1999]), a vector optimized for in vitro mRNA synthesis and Xenopus oocyte expression. […] The […] and […] mutations were introduced by Quikchange site-directed mutagenesis (Agilent Technologies, Stockport, UK) and confirmed by automated sequencing. In vitro transcription was carried out using the mMessage mMachine SP6 kit (Ambion, Huntingdon, UK) to produce capped mRNA. Individual oocytes were obtained from humanely killed female Xenopus laevis toads (housed either at the University of Leeds, UK or from the European Xenopus Resource Centre, University of Portsmouth, UK) and were injected with 10-50 ng RNA in a 40 nL volume. […] The volume of the bath was 0.5 mL, which was perfused at a rate of approximately 1 mL·min^-1. 100 mM K^+ solution was made by an equimolar replacement of NaCl with KCl. Data were analysed with […], OriginPro 7.5 (Originlab, Northampton, MA, USA), and GraphPad Prism 6 software (GraphPad Software, San Diego, CA, USA). […] Data are presented as the mean ± SEM of n individual oocytes and statistical significance tested using Student's t-test, ANOVA (with Bonferroni post hoc comparison of means), or by Kruskal-Wallis test (with Dunn's post hoc comparison) as indicated in the Results.
Background: In two-electrode clamp one electrode senses voltage and the other passes current.

In another assay the target is F304Y mSlo3 (Mus musculus, UniProt O54982, F304Y). Briefly: Two-electrode voltage clamp of F304Y mSlo3 currents in Xenopus oocytes. The assay is classed as cell-based. The conditions noted are these: +100 mV. How it is done:
A plasmid containing the full-length mSlo3 sequence was a gift from Dr L. Salkoff (Washington University School of Medicine) and the open-reading frame was subcloned into pBF (Baukrowitz et al., [1999]), a vector optimized for in vitro mRNA synthesis and Xenopus oocyte expression. […] The […] and […] mutations were introduced by Quikchange site-directed mutagenesis (Agilent Technologies, Stockport, UK) and confirmed by automated sequencing. In vitro transcription was carried out using the mMessage mMachine SP6 kit (Ambion, Huntingdon, UK) to produce capped mRNA. Individual oocytes were obtained from humanely killed female Xenopus laevis toads (housed either at the University of Leeds, UK or from the European Xenopus Resource Centre, University of Portsmouth, UK) and were injected with 10-50 ng RNA in a 40 nL volume. […] The volume of the bath was 0.5 mL, which was perfused at a rate of approximately 1 mL·min^-1. 100 mM K^+ solution was made by an equimolar replacement of NaCl with KCl. Data were analysed with […], OriginPro 7.5 (Originlab, Northampton, MA, USA), and GraphPad Prism 6 software (GraphPad Software, San Diego, CA, USA). […]

Chain of F304Y mSlo3 (O54982 whole entry F304Y): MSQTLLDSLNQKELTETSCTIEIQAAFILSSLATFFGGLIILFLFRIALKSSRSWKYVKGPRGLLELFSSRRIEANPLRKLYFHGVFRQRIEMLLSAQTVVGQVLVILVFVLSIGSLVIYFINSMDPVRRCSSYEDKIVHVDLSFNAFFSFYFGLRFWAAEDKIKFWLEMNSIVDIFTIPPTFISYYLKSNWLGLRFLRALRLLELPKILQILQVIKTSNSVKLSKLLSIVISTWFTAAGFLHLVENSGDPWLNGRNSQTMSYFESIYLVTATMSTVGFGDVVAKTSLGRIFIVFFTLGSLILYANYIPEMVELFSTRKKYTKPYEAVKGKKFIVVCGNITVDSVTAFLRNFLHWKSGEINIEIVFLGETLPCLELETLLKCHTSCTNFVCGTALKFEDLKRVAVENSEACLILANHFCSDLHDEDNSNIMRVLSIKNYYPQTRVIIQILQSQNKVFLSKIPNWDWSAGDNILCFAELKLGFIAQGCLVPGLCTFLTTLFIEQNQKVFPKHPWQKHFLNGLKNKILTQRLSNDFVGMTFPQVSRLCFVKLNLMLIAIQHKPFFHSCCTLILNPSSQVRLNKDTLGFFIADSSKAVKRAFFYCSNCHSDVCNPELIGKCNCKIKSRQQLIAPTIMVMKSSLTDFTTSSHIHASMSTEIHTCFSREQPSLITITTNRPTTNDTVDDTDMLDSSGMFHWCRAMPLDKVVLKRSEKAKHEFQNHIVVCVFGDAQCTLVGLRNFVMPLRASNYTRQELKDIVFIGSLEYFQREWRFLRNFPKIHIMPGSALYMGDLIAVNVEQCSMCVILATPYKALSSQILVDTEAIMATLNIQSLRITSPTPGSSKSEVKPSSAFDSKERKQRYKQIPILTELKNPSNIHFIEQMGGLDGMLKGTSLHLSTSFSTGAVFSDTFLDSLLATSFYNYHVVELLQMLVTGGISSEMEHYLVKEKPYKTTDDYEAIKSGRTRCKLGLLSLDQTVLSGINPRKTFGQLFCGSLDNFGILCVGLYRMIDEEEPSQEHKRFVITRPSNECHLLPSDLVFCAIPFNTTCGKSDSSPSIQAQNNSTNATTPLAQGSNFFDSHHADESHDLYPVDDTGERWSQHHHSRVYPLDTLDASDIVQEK

For the molecule `COCC(=O)O[C@]1(CCN(C)CCCc2nc3ccccc3[nH]2)CCc2cc(F)ccc2[C@@H]1C(C)C` [mibefridil, mibefradil], the “inhibition of WT mSlo3 current” value in assay [1] (5 μM) is “weakly inhibited”.

`CCCCCCC[N+](CC)(CC)CCCCc1ccc(Cl)cc1` [clofilium]: the “inhibition of WT mSlo3 current” value in assay [1] (50 μM) is listed as “more strongly inhibited”.

As for `CC[N+](CC)(CC)CC.[Cl-]` [TEA^+, tetraethlyammonium chloride], the “inhibition of WT mSlo3 current” value in assay [1] (20 mM) was “weakly inhibited”.

`[Ba+2].[Cl-].[Cl-]` [Ba^2+, barium chloride]: in assay [1] (2 mM, 2.5 mM extracellular K+), the “inhibition of WT mSlo3 current” value is “strongly inhibited”. In addition, the “inhibition of WT mSlo3 current in high extracellular K+” value in assay [1] (2 mM, extracellular K+ raised to 100 mM) is recorded as “prevented”. In assay [1] (+100 mV), the “Hill slope of inhibition of WT mSlo3 currents” value worked out at 0.88 ± 0.11. The IC50 – broadly, the concentration that inhibits the measured activity by half – came out at 646 ± 100 µM in assay [1] (currents evoked by voltage pulses to +100 mV, Xenopus oocytes, 2.5 mM K+ Ringer's pH 8, read-out: IC50 of inhibition of WT mSlo3 currents) and 525 ± 97 µM on F304Y mSlo3 (Xenopus oocytes, read-out: IC50 of inhibition of F304Y mSlo3 currents). Also, at F304Y mSlo3, the “Hill slope of inhibition of F304Y mSlo3 currents” value stood at 1.05 ± 0.12.
